Results: PubChem BioAssay (NCI)
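How tested: cells in 96-well plates exposed to compound for 48 hours at five concentrations. At the GI50, growth is halved. TGI: total growth inhibition.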 *1 amine or outer side, *2 acyl side, *3 side chain or, on linkers, in order; H or OH if unused. Where a SMILES comes first, the peptide text is derived from it. Bridges are numbered along the chain shown (N, C = ends). Roman numbers before positions name the chains, in order. [ ]: non-standard residue; d: D form. Actinocin(9to1) = Cc1c2oc3c(C)ccc(C(=O)[*:1])c3nc-2c(C(=O)[*:2])c(N)c1=O; NMeV = CN[CH](C(=O)O)C(C)C; Sar = CNCC(=O)O

Assays:
Test in all cases: DTP human tumour cell line panel, 48 h
RPMI-8226 leukemia = system: RPMI-8226 leukemia
BT-549 breast = system: BT-549 breast
CCRF-CEM leukemia = system: CCRF-CEM leukemia
HS 578T breast = system: HS 578T breast
ACHN renal = system: ACHN renal
MOLT-4 leukemia = system: MOLT-4 leukemia
DU-145 prostate = system: DU-145 prostate
786-0 renal = system: 786-0 renal
KM12 colon = system: KM12 colon
EKVX NSCLC = system: EKVX NSCLC
OVCAR-5 ovarian = system: OVCAR-5 ovarian
NCI-H460 lung = system: NCI-H460 lung
TK-10 renal = system: TK-10 renal
SN12C renal = system: SN12C renal
CAKI-1 renal = system: CAKI-1 renal
SK-MEL-2 melanoma = system: SK-MEL-2 melanoma
T-47D breast = system: T-47D breast
LOX IMVI melanoma = system: LOX IMVI melanoma

Row | SMILES | TGI (RPMI-8226 leukemia) [µM] | TGI (BT-549 breast) [µM] | TGI (CCRF-CEM leukemia) [µM] | TGI (HS 578T breast) [µM] | TGI (ACHN renal) [µM] | TGI (MOLT-4 leukemia) [µM] | TGI (DU-145 prostate) [µM] | TGI (786-0 renal) [µM] | TGI (KM12 colon) [µM] | TGI (EKVX NSCLC) [µM] | TGI (OVCAR-5 ovarian) [µM] | TGI (NCI-H460 lung) [µM] | TGI (TK-10 renal) [µM] | TGI (SN12C renal) [µM] | TGI (CAKI-1 renal) [µM] | TGI (SK-MEL-2 melanoma) [µM] | TGI (T-47D breast) [µM] | TGI (LOX IMVI melanoma) [µM] | GI50 (DU-145 prostate) [µM] | GI50 (OVCAR-5 ovarian) [µM]
1 | CON(C)C(=O)C(C)N(Cc1ccccc1)Cc1ccccc1 (stereo unspecified) | > 100 | > 100 | > 100 | > 100 | > 100 | > 100 | > 100 | > 100 | > 100 | > 100 | > 100 | > 100 | > 100 |  |  |  |  |  |  | 
2 | C=C1C(=O)O[C@@H]2/C=C(C)/C=C\[C@@H]3O[C@@]3(C)C[C@@H](O)C12 (stereo partly specified) | 18.7 |  | 4.93 | > 100 | 18.3 | 30.1 | 14.5 | 21.1 | 31.8 | 20.2 | 85.4 | 73.3 | 16.1 | 30.4 | 21 | > 100 | 23.6 | 22.2 |  | 
3 | COC(=O)CC(C)(NS(=O)c1ccc(C)cc1)c1ccccc1 (stereo unspecified) | > 100 |  |  | > 100 | > 100 | > 100 | > 100 | > 100 | > 100 | > 100 | > 100 | > 100 | > 100 | > 100 |  | > 100 | > 100 | > 100 |  | 
4 | Nc1nc(Cl)cc(OCC2(CO)CC=CC2)n1 | > 100 |  | > 100 | > 100 | > 100 | > 100 | > 100 | > 100 |  | > 100 | > 100 | > 100 | > 100 | > 100 |  |  |  | > 100 |  | 
5 | Cc1c2oc3c(C)ccc(C(=O)NC4C(=O)NC(C(C)C)C(=O)N5CCCC5C(=O)N(C)CC(=O)N(C)C(C(C)C)C(=O)OC4C)c3nc-2c(C(=O)NC2C(=O)NC(C(C)C)C(=O)N3CCCC3C(=O)N(C)CC(=O)N(C)C(C(C)C)C(=O)OC2C)c(N)c1=O (stereo unspecified) (I: TVP[Sar][NMeV] / II: TVP[Sar][NMeV]; ester I:1-I:C, II:1-II:C; linker I:N-II:N via Actinocin(9to1); configuration not given here) | > 1 | 0.0292 | 0.0033 | 0.00439 |  | 0.00137 | > 1 | > 1 | 0.019 | > 0.779 | 0.00663 | 0.00126 | > 0.246 | 0.0379 | > 0.316 | 0.00295 |  |  | 0.00129 | 0.00145
6 | CC1(C)[C@@H](Cn2cc(I)c(=O)[nH]c2=O)CC[C@@]1(C)CO |  |  | > 100 | > 100 | > 100 |  | > 100 | > 100 | > 100 | > 100 | > 100 |  | > 100 | > 100 | > 100 | > 100 | > 100 | > 100 |  | 
7 | N#Cc1nc(-c2cnccn2)oc1N | > 100 |  | > 100 | > 100 | > 100 | > 100 | > 100 | > 100 | > 100 | > 100 | > 100 |  | > 100 | > 100 | > 100 | > 100 |  | > 100 |  | 
8 | COc1cccc(-c2cc(=O)c3cc(N4CCCCC4)ccc3[nH]2)c1 | > 100 |  | > 100 | > 86.1 | > 96.6 | > 100 | > 100 | > 48 | 0.783 | > 100 | > 100 |  | > 100 | > 100 | > 100 | > 100 | > 100 | > 100 |  | 
9 | C=C1c2nc3ccccc3n2C=C(c2ccc(OC)cc2)N1c1ccc(OC)cc1 | > 100 | 39.8 | > 100 |  | 25 | > 100 | > 100 | > 100 | 44.9 | > 100 | > 100 | > 100 | 24.3 | 59 | 19.3 | > 100 |  | > 100 |  | 
10 | NC(Cc1ccccc1)C(=O)NC(Cc1ccccc1)NC(=O)C(Cc1c[nH]c2ccccc12)C(=O)O (stereo unspecified) | > 100 |  | > 100 | > 100 | > 100 |  | > 100 | > 100 | > 100 | > 100 | > 100 | > 100 | > 100 | > 100 | > 100 | > 100 | > 100 | > 100 |  | 
11 | O=S(=O)(O)c1cc(N=Nc2c(O)ccc3ccccc23)cc2c(S(=O)(=O)O)cccc12 | > 100 | > 100 | > 100 | > 100 | > 100 | > 100 |  | > 100 | > 100 | > 100 | > 100 | > 100 | > 100 |  | > 100 | > 100 |  |  |  | 
